A short description of data set [1]: γ-T3 level in tumors and organs by HPLC. The following applies: 50 mg/kg/day γ-T3 for 10 days. Format: in vivo, BALB/c athymic nude mice. As for the experimental part: Nude mice bearing similar tumor sizes of about 100 mm^3 (after 2 weeks inoculation) were selected and randomly divided into three groups (n=5 per group); control (DMSO as vehicle), γ-T3 (50 mg/kg/d) and combination treatment of γ-T3 and Docetaxel (50 mg of γ-T3/kg/d and 7.5 mg of Docetaxel/kg/wk). The mice were weighed as daily basic and the tumors were measured using a Digital Carbon Fiber Caliper (Fisher scientific, Pittsburgh, Pa.) at the same time. The tumor volume was calculated as 4/3*π*(mean diameter/2)^3. The mice were dosed 5 times a week for 2 weeks. After 10 days of treatment, the mice were euthanized by CO2 inhalation. Blood samples were collected through cardiac bleeding using 25-gauge needle. Blood samples were incubated at room temperature for 30 min, followed by centrifugation at 4400 rpm, 4° C. for 30 min. Serum, as the supernatant, was separated from plasma and stored at −80° C. Tumor, liver, kidney, spleen, lung and heart were harvested. Part of the tumors was fixed in 10% neutral buffered formalin solution. […]
4.1.7 Determination of γ-Tocotrienol level by high performance liquid chromatography—A normal phase of HPLC method was performed as a modification of procedures known in the art. […] The absorbance of γ-T3 was monitored with a […] set at an excitation wavelength of 290 nm and emission wavelength of 360 nm.

Data set [2] concerns PC-3-Luc prostate cancer xenograft. Description: PC-3-Luc prostate cancer xenograft model. Format: in vivo, BALB/c athymic nude mice. The following applies: γ-T3 50 mg/kg/day, Docetaxel 7.5 mg/kg/week; by day 14th after start of treatment; control 620±10. As for the experimental part:
4.1.3 Establishment of the PC-3 prostate cancer xenograft model—Bioluminescent PC-3-Luc human prostate cancer cell line were generated according to known methods. Briefly, cDNA encoding the luciferase gene was cloned into the pLenti-6/V5. The construct was co-transfected with the packaging mix into HEK293 and lentivirus were collected and used for infecting PC-3 cells. Transfectants were obtained as a pool (PC-3-Luc) by selection with 10 μg/mL of Blasticidine for 1 week. The animal experimental protocol was approved by NACLAR (National Advisory Committee for Laboratory Animal Research) Guideline of Singapore for proper and humane use of animals. Male BALB/c athymic nude mice (4-5 weeks old, 18-22 g) were purchased from The Jackson Laboratory (Bar Harbor, Me., USA). […]
Nude mice bearing similar tumor sizes of about 100 mm^3 (after 2 weeks inoculation) were selected and randomly divided into three groups (n=5 per group); control (DMSO as vehicle), γ-T3 (50 mg/kg/d) and combination treatment of γ-T3 and Docetaxel (50 mg of γ-T3/kg/d and 7.5 mg of Docetaxel/kg/wk). The mice were weighed as daily basic and the tumors were measured using a Digital Carbon Fiber Caliper (Fisher scientific, Pittsburgh, Pa.) at the same time. The tumor volume was calculated as 4/3*π*(mean diameter/2)^3. […]

The test system of a further data set is G361 cells. Description: Matrigel-invasion assay, G361 cells. Format: cell-based. The note with it: γ-T3 at IC50 and IC85. The procedure:
1.1.4 Matrigel-invasion assay—Matrigel-invasion assay was performed according to a previously published method with modifications. Briefly, cells were pre-incubated in a serum-free RPMI 1640 medium with or without γ-T3 isomers for 24 hrs. Cells (2.5×10^5) resuspended in 500 μl of serum-free RPMI 1640 containing 0.1% bovine serum albumin (BSA) were then added to the upper chamber of a 8 μm pore size insert (Millipore, Bedford, Mass.) manually coated with Matrigel (0.5 mg/ml) (BD Bioscience, Bedford, Mass.). Five hundred μl of invasion buffer containing fibronectin (10 μg/ml) and RPMI 1640 supplemented with 10% FCS were added in the lower chamber as a chemo-attractant. Cells were incubated at 37° C. for 24 hrs in 5% CO2 humidified conditions. At the end of incubation period, inserts were stained with Diff-Quick staining solution (Fischer Scientific). Non-invaded cells on the inside of the insert were scraped off with a cotton swab. Cell invasions were then examined by a phase-contrast microscope. The invaded cells were extracted using extraction buffer (Millipore, Bedford, Mass.) and the cell number was estimated based on absorbance at 595 nm.

Turning to `CC(C)=CCC/C(C)=C/CC/C(C)=C/CCC1(C)CCc2cc(O)c(C)c(C)c2O1` (stereo not shown) [γ-T3, 7,8-dimethyltocotrienol], in data set [1], the “tumor γ-T3 amount relative to other internal organs” value is recorded as “at least two-fold” and the “γ-T3 concentration within the tumors” value is 0.15±0.03 mg of γ-T3 per gram of wet weight. The tumor volume in data set [2] is 300±48 mm^3. In addition, in the data set with G361 cells, the “invasion capability compared to untreated control” value is on record as 2 -time lower.
